# Literature values as cited in patent US20210100740A1, “BIO-ADHESIVE DISSOLVING COMPOUNDS AND DEVICE” (Segal Innovations LLC, priority 2019, published 2021).
compound,measurement,setting,value
CO[C@@]12[C@H](COC(N)=O)C3=C(C(=O)C(C)=C(N)C3=O)N1C[C@@H]1N[C@@H]12 [mitomycin],degradation in acidic solutions and when exposed to light,"acidic solutions with a pH of less than 6, exposed to light",rapid degradation
same,how long mitomycin lasts,refrigerated between 2° C. and 8° C. without being exposed to light,up to one week
